In US10369093B2, “Stable solution of hexamidine salts in alkanediol-water mixtures, with antimicrobial and skin-moisturising effect” (MINASOLVE GERMANY GMBH, priority 2015, dated 2019):

Key:
[1] = test system: forearms of healthy volunteers (human skin); experiment: Corneometry test for moisturizing effect; format: in vivo; conditions: 3% in H2O
Description: To test the moisturizing effect of various substances and mixtures, the test substances were diluted with distilled water to a concentration of 2-3%. The diluted solutions were applied to the forearms of healthy volunteers (number: 12, age: 19-64 years). Before and after the simple application, the skin moisture of the treated skin areas was measured instrumentally with the aid of a Corneometer CM825, combined with a Cutometer dual MPA 580 from Courage & Khazaka. All measurements were preceded by acclimatization of the subjects in a controlled environment (21° C.±1° C., 45%±10% humidity). The measurement results are given as a percentage change from the initial value after 1 h, 2 h, 4 h, 8 h and 24 h and are summarized in Table 4.

Candida albicans = experiment: Minimum inhibitory concentration, suspension test; format: cell-based; conditions: 4 days at 30° C.
Description: (§1) Minimal inhibitory concentrations against bacteria, fungi and yeasts were determined by means of a suspension test. For this purpose, nine-stage dilution series of the respective test substances were prepared in 1:1 mixtures of CASO broth and distilled water. For the tests with mushrooms and yeasts in each case 2% dextrose was added. Each microorganism was tested separately in a test tube containing 10 ml of said culture medium. To each tube was added 0.1 ml of a suspension containing 5×10^8 colony forming units (CFU) for bacteria and 1×10^7 CFU for fungi and yeasts, respectively. Each tube was incubated for 3 days at 37° C. (bacteria) or for 4 days at 30° C. (fungi and yeasts). The minimum inhibitory concentration was defined as the concentration at which no turbidity or other visible signs of microbial growth were observed after the end of the test period.

Escherichia coli = experiment: Minimum inhibitory concentration, suspension test; format: cell-based; conditions: 3 days at 37° C.
Description: as §1

Aspergillus brasiliensis = experiment: Minimum inhibitory concentration, suspension test; format: cell-based; conditions: 4 days at 30° C.
Description: as §1

Pseudomonas aeruginosa = experiment: Minimum inhibitory concentration, suspension test; format: cell-based; conditions: 3 days at 37° C.
Description: as §1

Staphylococcus aureus = experiment: Minimum inhibitory concentration, suspension test; format: cell-based; conditions: 3 days at 37° C.
Description: as §1

[2] = according to EP1477157B1; cited from earlier work
[3] = BASF data sheet Elestab HP100; cited from earlier work

Structure (SMILES) | corneometry, % change compared to T0 after 1 h [1] | corneometry, % change compared to T0 2 h [1] | corneometry, % change compared to T0 4 h [1] | corneometry, % change compared to T0 8 h [1] | corneometry, % change compared to T0 24 h [1] | Minimal Inhibitory Concentration (MIC) (Candida albicans) [%] | Minimal Inhibitory Concentration (MIC) (Escherichia coli) [%] | Minimal Inhibitory Concentration (MIC) (Aspergillus brasiliensis) [%] | Minimal Inhibitory Concentration (MIC) (Pseudomonas aeruginosa) [%] | Minimal Inhibitory Concentration (MIC) (Staphylococcus aureus) [%] | C log P [2] | compatible pH range [3]
CCCC(O)CO (centres unmarked) [1,2-pentanediol] | +18.8% | +31.6% | +37.7% | +21.6% | +13.1% | 2.5 | 2.5 | 2.5 | 2.5 | 4.0 | – | –
CCCCC(O)CO (centres unmarked) [1,2-hexanediol] | – | – | – | – | – | – | – | – | – | – | +0.25 | –
OCCCCCCCO [1,7-heptanediol] | – | – | – | – | – | – | – | – | – | – | +0.46 | –
OCC(O)CO [glycerin] | +34.3% | +40.2% | +39.5% | +29.9% | +17.5% | – | – | – | – | – | – | –
N=C(N)c1ccc(OCCCCCCOc2ccc(C(=N)N)cc2)cc1 [hexamidine diisethionate, 2-hydroxyethanesulfonic acid-4,4′-[1,6-hexanediylbis(oxy)]dibenzenecarboximidamide] | – | – | – | – | – | 0.01 | 0.01 | 0.0005 | 0.1 | 0.0025 | – | 3-8
